# Measured values from patent US20230398218A1, “RAS NEOANTIGENS AND USES THEREOF” (priority 2020, published 2023).
# Where two headings read alike, the source gives them in different places. No end group written: not given here.
# Assays:
# [1] = target: T1, HLA A02.01 (Homo sapiens, UniProt P04439, D140Y/D185E/D98H/E176V/E277Q/G131W/G231S/I119V/I121R/I166T/I218V/L300P/L318F/N151K/N90K/P208A/P217A/Q86G/Q94H/R138H/R169H/T345S); assay: MHC-I peptide binding affinity assay (displacement of radiolabeled reference peptide)
# [2] = target: T2, HLA A01.01 (Homo sapiens, UniProt P04439, A114D/A174V/A182V/D101N/D185E/E176A/E190D/L180R/Q94H/R68K/S129P/T187R/V100A/V91M/W191G); assay: as above
# Excerpt: (§1) 31:813 (1994). […] 149:1896 (1992)).
# [3] = target: T1, HLA A02.01; assay: MHC-I peptide binding stability assay (pMHC-I dissociation half-life); settings: HLA allele A02.01
# Procedure: (§2) Briefly, synthetic genes encoding biotinylated MHC-I heavy and light chains are expressed in E. coli and purified from inclusion bodies using standard methods. The light chain (β2m) is radio-labeled with iodine (1251), and combined with the purified MHC-I heavy chain and peptide of interest at 18° C. to initiate pMHC-I complex formation. These reactions are carried out in streptavidin coated microplates to bind the biotinylated MHC-I heavy chains to the surface and allow measurement of radiolabeled light chain to monitor complex formation. Dissociation is initiated by addition of higher concentrations of unlabeled light-chain and incubation at 37° C. Stability is defined as the length of time in hours it takes for half of the complexes to dissociate, as measured by scintillation counts.
# [4] = target: HLA A24.02; assay: MHC-I peptide binding affinity assay (displacement of radiolabeled reference peptide); parameters: species or system human; settings: Table 11, EGFR T790M peptides; HLA allele A24.02
# Excerpt: as §1
# [5] = target: T3, HLA A03.01 (Homo sapiens, UniProt P04439); assay: as above; parameters: made in house; host or cells: E. coli; settings: Table 10, BTK C481S peptides; HLA allele A03.01
# Excerpt: as §1
# [6] = target: T3, HLA A03.01; assay: MHC-I peptide binding stability assay (pMHC-I dissociation half-life); parameters: made in house; host or cells: E. coli; settings: Table 10, BTK C481S peptides; HLA allele A03.01
# Procedure: as §2
# [7] = target: T2, HLA A01.01; assay: as above; settings: HLA allele A01.01
# Procedure: as §2
# [8] = target: HLA B07.02 (Homo sapiens, UniProt P01889); assay: MHC-I peptide binding affinity assay (displacement of radiolabeled reference peptide); settings: Table 11, EGFR T790M peptides; HLA allele B07.02
# Excerpt: as §1
# [9] = target: HLA B08.02; assay: as above; parameters: species or system human; settings: Table 11, EGFR T790M peptides; HLA allele B08.02
# Excerpt: as §1
# [10] = test system: HLA A24.02; assay: MHC-I peptide binding stability assay (pMHC-I dissociation half-life); parameters: species or system human; settings: Table 11, EGFR T790M peptides; HLA allele A24.02
# Procedure: as §2
# [11] = target: HLA B08.01 (Homo sapiens, UniProt P01889, A93T/A95T/D138N/E176V/E187T/K202T/Q94N/R180D/S35A/V36M/Y33D/Y91F); settings: read-out: Affinity
# Excerpt: As used herein, the term “affinity” refers to a measure of the strength of binding between two members of a binding pair, for example, an HLA-binding peptide and a class I or II HLA. K D is the dissociation constant and has units of molarity. The affinity constant is the inverse of the dissociation constant. An affinity constant is sometimes used as a generic term to describe this chemical entity. It is a direct measure of the energy of binding. Affinity may be determined experimentally, for example by surface plasmon resonance (SPR) using commercially available Biacore SPR units. […] Likewise, ln(IC50) refers to the natural log of the IC50. Koff refers to the off-rate constant, for example, for dissociation of an HLA-binding peptide and a class I or II HLA. […] Given the conditions in which the assays are run (i.e., limiting HLA protein and labeled reference peptide concentrations), these values approximate KD values. […] Alternatively, binding can be expressed relative to binding by a reference standard peptide. For example, can be based on its IC50, relative to the IC50 of a reference standard peptide.
# In brief, MHCI complexes were prepared and bound to radiolabeled reference peptides. Peptides were incubated at varying concentrations with these complexes for 2 days, and the amount of remaining radiolabeled peptide bound to MHCI was measured using size exclusion gel-filtration.
# [12] = test system: T2 or HLA-A0201 transfected C1Rs pulsed with peptide; assay: IFNγ ELISpot assay; assay type: cell-based, human; settings: number of donors responding out of 2; HLA-A02:01 peptides
# Procedure: In some embodiments the immunogenicity is measured by measuring a protein or peptide expressed by the T cell, using ELISpot assay. Peptide-specific T cells are functionally enumerated using the ELISpot assay (BD Biosciences), which measures the release of IFNγ from T cells on a single cell basis. Target cells (T2 or HLA-A0201 transfected C1Rs) were pulsed with 10 μM peptide for one hour at 37 degrees C., and washed three times. 1×10^5 peptide-pulsed targets are co-cultured in the ELISPOT plate wells with varying concentrations of T cells (5×10^2 to 2×10^3) taken from the immunogenicity culture. Plates are developed according to the manufacturer's protocol, and analyzed on an ELISPOT reader (Cellular Technology Ltd.) with accompanying software. Spots corresponding to the number of IFN gamma-producing T cells are reported as the absolute number of spots per number of T cells plated. T cells expanded on modified peptides are tested not only for their ability to recognize targets pulsed with the modified peptide, but also for their ability to recognize targets pulsed with the parent peptide. Some exemplary data are shown below in Table 13.
# [13] = test system: MHC protein encoded by HLA-C03:04 allele; assay: Identification of MHC-bound epitope by mass spectrometry; assay type: cell-based, human; settings: MHC encoded by HLA-C03:04 allele
# Excerpt: (§3) In some embodiments, antigenic peptides comprising an epitope may be identified by mass spectrometry to be bound to an MHC encoded by an HLA.
# (§4) Provided herein are KRAS epitopes each of which specifically can bind to the MHC protein encoded by the alleles indicated in right hand column in the same row of Table 1, that have been identified to bind to the MHC protein by mass spectrometry, and that each epitope is presented to T cells by association with the MHC protein in the respective right hand column for each row in Table 1.
# (§5) To assess whether antigens could be processed and presented from the larger polypeptide context, peptides eluted from HLA molecules isolated from cells expressing the genes of interest were analyzed by tandem mass spectrometry (MS/MS).
# [14] = test system: MHC protein encoded by HLA-C03:03 allele; assay: as above; assay type: cell-based, human; settings: MHC encoded by HLA-C03:03 allele
# Excerpt: as §3, §4, §5
# [15] = target: T3, HLA A03.01; assay: HLA-peptide elution and targeted MS/MS (PRM) presentation assay; assay type: cell-based; parameters: expressed in transfected cells; SW620 cells (lentiviral transduction)
# Procedure: as §5
# For analysis of presentation of RAS neoantigens, cell lines were utilized that have RAS mutations naturally or were lentivirally transduced to express the mutated RAS gene. HLA molecules were either isolated based on the natural expression of the cell lines or the cell lines were lentivirally transduced or transiently transfected to express the HLA of interest. […] Greater than 50 million cells expressing peptides encoded by a mutant RAS peptide were cultured and peptides were eluted from HLA-peptide complexes using an acid wash. Eluted peptides were then analyzed by targeted MS/MS with parallel reaction monitoring (PRM). […] Endogenous peptide spectrum is shown in the top panel and the corresponding stable heavy-isotopically labeled spectrum is shown in the bottom panel.
# [16] = Table 11, EGFR T790M peptides, HLA allele A02.01, read-out: Affinity
# [17] = Table 10, BTK C481S peptides, HLA allele A01.01, read-out: Affinity
molecule,measurement,setting,value
CC[C@H](C)[C@H](NC(=O)[C@H](CC(C)C)NC(=O)[C@H](CCC(N)=O)NC(=O)[C@@H](NC(=O)[C@@H](NC(=O)[C@H](CO)NC(=O)[C@@H](NC(=O)[C@H](CC(C)C)NC(=O)[C@@H](N)CS)[C@@H](C)O)[C@@H](C)O)C(C)C)C(=O)N[C@@H](CCSC)C(=O)O,IC50,[1],0.537 µM
same,IC50,[2],8.28 µM
CC[C@H](C)[C@H](N)C(=O)N[C@@H](CCSC)C(=O)N[C@@H](CCC(N)=O)C(=O)N[C@@H](CC(C)C)C(=O)N[C@@H](CCSC)C(=O)N1CCC[C@H]1C(=O)N[C@@H](Cc1ccccc1)C(=O)NCC(=O)N[C@@H](CS)C(=O)N[C@@H](CC(C)C)C(=O)O,IC50,[1]; [16],0.653 µM
same,Stability (half-life (hr.)),"[3]; Table 11, EGFR T790M peptides",30.94 min
same,IC50,[4],14.1 µM
CC[C@H](C)[C@H](NC(=O)[C@@H](N)CC(C)C)C(=O)N[C@@H](CCSC)C(=O)N[C@@H](CCC(N)=O)C(=O)N[C@@H](CC(C)C)C(=O)N[C@@H](CCSC)C(=O)N1CCC[C@H]1C(=O)N[C@@H](Cc1ccccc1)C(=O)NCC(=O)N[C@@H](CS)C(=O)O,IC50,[1]; [16],0.132 µM
same,Stability (half-life (hr.)),"[3]; Table 11, EGFR T790M peptides",22.88 min
CSCC[C@H](N)C(=O)N[C@@H](C)C(=O)N[C@@H](CC(N)=O)C(=O)NCC(=O)N[C@@H](CO)C(=O)N[C@@H](CC(C)C)C(=O)N[C@@H](CC(C)C)C(=O)N[C@@H](CC(N)=O)C(=O)N[C@@H](Cc1ccc(O)cc1)C(=O)O,IC50,[2]; [17],0.439 µM
same,IC50,[5],0.0356 µM
same,Stability (half-life (hr.)),[6],14.3 min
same,Stability (half-life (hr.)),"[7]; Table 10, BTK C481S peptides",12.98 min
CSCC[C@H](NC(=O)[C@H](CC(C)C)NC(=O)[C@H](CCC(N)=O)NC(=O)[C@@H](N)CCSC)C(=O)N1CCC[C@H]1C(=O)N[C@@H](Cc1ccccc1)C(=O)NCC(=O)N[C@@H](CS)C(=O)N[C@@H](CC(C)C)C(=O)O,IC50,[1]; [16],0.116 µM
same,IC50,[8],1.59 µM
same,Stability (half-life (hr.)),"[3]; Table 11, EGFR T790M peptides",22.1 min
CSCC[C@H](NC(=O)[C@H](CC(C)C)NC(=O)[C@H](CCC(N)=O)NC(=O)[C@@H](N)CCSC)C(=O)N1CCC[C@H]1C(=O)N[C@@H](Cc1ccccc1)C(=O)NCC(=O)N[C@@H](CS)C(=O)N[C@@H](CC(C)C)C(=O)N[C@@H](CC(C)C)C(=O)O,IC50,[1]; [16],0.0163 µM
same,Stability (half-life (hr.)),"[3]; Table 11, EGFR T790M peptides",22.87 min
same,IC50,[4],18.9 µM
CC[C@H](C)[C@H](NC(=O)[C@H](CC(C)C)NC(=O)[C@@H](N)CCC(N)=O)C(=O)N[C@@H](CCSC)C(=O)N[C@@H](CCC(N)=O)C(=O)N[C@@H](CC(C)C)C(=O)N[C@@H](CCSC)C(=O)N1CCC[C@H]1C(=O)N[C@@H](Cc1ccccc1)C(=O)O,IC50,[1]; [16],0.193 µM
same,Stability (half-life (hr.)),"[3]; Table 11, EGFR T790M peptides",20.44 min
same,IC50,[4],2.03 µM
same,IC50,[9],5.59 µM
same,Stability (half-life (hr.)),[10],22.12 min
CSCC[C@H](NC(=O)[C@H](CCC(=O)O)NC(=O)[C@H](CCCNC(=N)N)NC(=O)[C@H](CC(C)C)NC(=O)[C@H](Cc1ccc(O)cc1)NC(=O)[C@H](CC(N)=O)NC(=O)[C@H](CC(C)C)NC(=O)[C@H](CC(C)C)NC(=O)[C@@H](N)CO)C(=O)O,IC50,[11],0.96 µM
same,Stability (half-life (hr.)),"[3]; Table 10, BTK C481S peptides",182.6 min
CC[C@H](C)[C@H](NC(=O)[C@H](CC(C)C)NC(=O)[C@H](CCC(N)=O)NC(=O)[C@@H](N)C(C)C)C(=O)N[C@@H](CCSC)C(=O)N[C@@H](CCC(N)=O)C(=O)N[C@@H](CC(C)C)C(=O)N[C@@H](CCSC)C(=O)N1CCC[C@H]1C(=O)N[C@@H](Cc1ccccc1)C(=O)O,IC50,[1]; [16],4.94 µM
same,IC50,[4],4.1 µM
FLGYLILGV,Immunogenicity (# donors/2),[12],1 # donors/2
FLTPKKLQCV,Immunogenicity (# donors/2),[12],1 # donors/2
FQNSYTIGL,Immunogenicity (# donors/2),[12],2 # donors/2
FQYPEFSIEL,Immunogenicity (# donors/2),[12],1 # donors/2
GACGVGKSA,"binding to MHC protein, identified by mass spectrometry",[13],specifically binds
GAVGVGKSA,"binding to MHC protein, identified by mass spectrometry",[14],specifically binds
ILNDTGCHYV,Immunogenicity (# donors/2),[12],1 # donors/2
IMQLMPFGC,IC50,[1]; [16],1.21 µM
same,Stability (half-life (hr.)),"[3]; Table 11, EGFR T790M peptides",22.21 min
LIMQLMPFG,IC50,[1]; [16],3.34 µM
LLANDLMLI,Immunogenicity (# donors/2),[12],2 # donors/2
LLANGRMPTV,Immunogenicity (# donors/2),[12],2 # donors/2
LTSTVQLIM,IC50,"[2]; Table 11, EGFR T790M peptides, HLA allele A01.01, read-out: Affinity",2.89 µM
same,Stability (half-life (hr.)),"[7]; Table 11, EGFR T790M peptides",6.222 min
QLIMQLMPFG,IC50,[1]; [16],5.21 µM
RLIWLVKMV,Immunogenicity (# donors/2),[12],1 # donors/2
STVQLIMQL,IC50,[1],7.26 µM
VLDCCISLL,Immunogenicity (# donors/2),[12],1 # donors/2
VVVGAVGVGK,HLA-eluted peptide detected by mass spectrometry,[15]; 293T cells lentivirally transduced with RAS G12V mutation and HLA-A*03:01 gene,detected
same,HLA-eluted peptide detected by mass spectrometry,"[15]; SW620 cells naturally expressing RAS G12V, lentivirally transduced with HLA-A*03:01 gene",detected
YMANGSLLNY,IC50,[2]; [17],0.0132 µM
same,IC50,[5],0.0959 µM
same,Stability (half-life (hr.)),[6],16.75 min
same,Stability (half-life (hr.)),"[7]; Table 10, BTK C481S peptides",51.97 min
